# In patent publication US20180272042A1, “DRUG-POLYMER FILM FOR CONTROLLED LOCAL DELIVERY AT TISSUE-DEVICE INTERFACE” (Brown University, priority 2017, published 2018):
# Test system: oxidative stress
# Experiment: oxidative stress in vitro model
# Format: cell-based
# Details: pterostilbene compared with resveratrol
smiles,measurement,value
Oc1ccc(C=Cc2cc(O)cc(O)c2)cc1 [resveratrol],treatment of oxidative stress,comparable
